pIC50, pKi: −log10 of the molar value.
Columns and labels:
[1] = target: T1, Adenosine receptor A1 (Rattus norvegicus, UniProt P25099); assay: Inhibition of Adenylate cyclase activity in rat fat cell membrane at adenosine A1 receptor; type: cell-based
T1 sequence (P25099 whole entry): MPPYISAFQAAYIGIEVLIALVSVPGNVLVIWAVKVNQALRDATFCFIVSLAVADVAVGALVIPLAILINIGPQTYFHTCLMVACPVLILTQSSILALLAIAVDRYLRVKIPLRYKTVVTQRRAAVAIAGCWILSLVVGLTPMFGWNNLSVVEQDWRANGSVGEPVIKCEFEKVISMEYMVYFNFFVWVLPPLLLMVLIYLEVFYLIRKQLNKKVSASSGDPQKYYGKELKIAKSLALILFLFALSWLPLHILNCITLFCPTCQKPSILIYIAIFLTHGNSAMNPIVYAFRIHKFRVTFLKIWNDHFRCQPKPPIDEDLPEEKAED

[2] = target: T2, Adenosine receptor A1 (Rattus norvegicus) (UniProt P25099); assay: Maximal inhibition of adenylate cyclase activity relative to R-PIA for Adenosine A1 receptor (Inhibition by R-PIA=53+/-10%)
T2 sequence (whole entry): T1 sequence (P25099 whole entry)

[3] = A1 selectivity as ratio of EC50 at A2 receptor to IC50 at A1 receptor
[4] = target: T1, Adenosine receptor A1
Description: Displacement of [3H]PIA from adenosine A1 receptor of rat brain membranes

[5] = target: Adenosine A2 receptor (Homo sapiens, UniProt P29275+P29274)
Description: Stimulation of adenylate cyclase activity in human platelet membrane at A2 receptor

[6] = target: Adenosine A2 receptor (Rattus norvegicus, UniProt P29276+P30543)
[7] = organism: Homo sapiens; assay: Concentration that inhibits platelet aggregation induced by ADP (7 uM) by 50%; type: functional

pIC50 [1] | relative max inhibition [2] [%] | Selectivity [3] | pKi [4] | EC50 [5] [nM] | Ki [6] [nM] | pIC50 [7] | SMILES
6.20 | 116 | 10.5 | 8.11 | 6600 | 4900 | – | CC(Cc1ccccc1)Nc1ccnc2c1ncn2C1O[C@H](CO)[C@@H](O)[C@H]1O (stereo partly drawn)
5.80 | 109 | 12.4 | 7.80 | 20000 | 6800 | – | OC[C@H]1O[C@@H](n2cnc3c(NC4CCCCC4)ccnc32)[C@H](O)[C@@H]1O
– | – | – | – | – | – | 5.23 | Nc1ncnc2c1ncn2[C@@H]1O[C@H](CO)[C@@H](O)[C@H]1O [ADENOSINE]
6.01 | 107 | 27 | 8.12 | 26000 | 17600 | – | OC[C@H]1O[C@@H](n2cnc3c(NC4CCCC4)ccnc32)[C@H](O)[C@@H]1O
– | – | – | – | – | 2000 | – | OC[C@H]1O[C@@H](n2cnc3c(NC4CCCC4)ncnc32)[C@H](O)[C@@H]1O [N6-CYCLOPENTYLADENOSINE]
5.17 | 97 | 2.7 | 6.94 | 18000 | 2900 | 4.18 | Nc1ccnc2c1ncn2[C@@H]1O[C@H](CO)[C@@H](O)[C@H]1O
6.02 | 108 | 3.6 | 7.74 | 3500 | 3700 | – | CC(Cc1ccccc1)Nc1cc(Cl)nc2c1ncn2C1O[C@H](CO)[C@@H](O)[C@H]1O (stereo partly drawn)
5.62 | 114 | 2 | 7.33 | 4800 | 8200 | – | OC[C@H]1O[C@@H](n2cnc3c(NC4CCCCC4)cc(Cl)nc32)[C@H](O)[C@@H]1O
6.44 | 107 | 78 | 8.80 | 28000 | 13200 | – | OC[C@H]1O[C@@H](n2cnc3c(NC4CCCC4)cc(Cl)nc32)[C@H](O)[C@@H]1O
5.82 | 104 | 1.9 | 7.29 | 2800 | 580 | 5.22 | CCNC(=O)[C@H]1O[C@@H](n2cnc3c(N)ccnc32)[C@H](O)[C@@H]1O

SMILES | pIC50 [1] | relative max inhibition [2] [%] | Selectivity [3] | pKi [4] | EC50 [5] [nM] | Ki [6] [nM] | pIC50 [7]
CCNC(=O)[C@H]1O[C@@H](n2cnc3c(N)ncnc32)[C@H](O)[C@@H]1O [NECA] | – | – | – | – | – | – | 6.22

Source: ChEMBL document CHEMBL1124132, “Adenosine receptor agonists: synthesis and biological evaluation of 1-deaza analogues of adenosine derivatives” (J Med Chem, 1988)
